Laboratory results: patent publication US7858618B2, “Compounds” (Boehringer Ingelheim International GmbH, priority 2006, dated 2010)

These molecules were tested against T1, hBK1 receptor (Homo sapiens, UniProt P46663) (assay: hBK1 receptor binding (displacement of [3H]-kallidin (DesArg10, Leu9) from membranes of CHO cells expressing the hBK1 receptor)). Conditions: CHO cell membranes expressing hBK1 receptor; 0.5 to 1.0 nM [3H]-kallidin (DesArg10, Leu9); 60 minutes at room temperature.
T1 construct: expressed in transfected cells; host or cells: CHO cells
T1 sequence (P46663 1-353): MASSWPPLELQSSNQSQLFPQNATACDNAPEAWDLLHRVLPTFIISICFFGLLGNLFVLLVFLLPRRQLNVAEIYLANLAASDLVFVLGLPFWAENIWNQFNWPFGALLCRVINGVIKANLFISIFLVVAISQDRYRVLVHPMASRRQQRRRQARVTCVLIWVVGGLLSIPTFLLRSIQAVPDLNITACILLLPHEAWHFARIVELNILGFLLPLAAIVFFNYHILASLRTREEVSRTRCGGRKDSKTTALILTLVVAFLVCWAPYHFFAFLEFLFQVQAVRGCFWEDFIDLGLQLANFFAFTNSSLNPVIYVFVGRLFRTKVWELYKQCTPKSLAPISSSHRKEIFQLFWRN
Method: Description of the Method of hBK1 Receptor Binding
CHO cells expressing the hBK1 receptor are cultivated in Dulbecco's modified medium. The medium from confluent cultures is removed and the cells are washed with PBS buffer, scraped off and isolated by centrifugation. The cells are then homogenized in suspension and the homogenate is centrifuged and resuspended. The protein content is determined and the membrane preparation obtained in this manner is then frozen at −80° C.
After thawing, 200 μl of the homogenate (50 to 100 μg of proteins/assay) are incubated at room temperature with 0.5 to 1.0 nM of kallidin (DesArg10, Leu9), [3,4-prolyl-3,43H(N)] and increasing concentrations of the test substance in a total volume of 250 μl for 60 minutes. The incubation is terminated by rapid filtration through GF/B glass fibre filters which had been pretreated with polyethyleneimine (0.3%). The protein-bound radioactivity is measured in a TopCount NXT. Non-specific binding is defined as radioactivity bound in the presence of 1.0 μM of kallidin (DesArg10, Leu9), [3,4-prolyl-3,43H(N)]. The concentration/binding curve is analysed using a computer-assisted nonlinear curve fitting. The Ki which corresponds to the test substance is determined using the data obtained in this manner. […]

SMILES | Ki [nM]
COc1cc(C)c(S(=O)(=O)N(C)CCOCC(=O)N(C)Cc2ccc(CN3CCCC3)cc2C)c(C)c1 [(338)] | 1.11
COc1cc(C)c(S(=O)(=O)N(C)CCOCC(=O)N(C)[C@@H]2CCN(C3CCN(C4CCC4)CC3)C2)c(C)c1 [(577)] | 0.34
CCN1CCC(N2CC[C@@H](N(C)C(=O)COCCN(C)S(=O)(=O)c3c(C)cc(OC)cc3C)C2)CC1 [(400)] | 0.79
COc1cc(C)c(S(=O)(=O)N(C)CCOCC(=O)N(C)C[C@H]2CC[C@@H](N3CCN(C)CC3)CC2)c(C)c1 [(584)] | 9
COc1cc(C)c(S(=O)(=O)N(C)CCOCC(=O)N(C)C[C@H]2CC[C@@](C)(CN3CCCC3)C2(C)C)c(C)c1 [(474)] | 1.4
COc1cc(C)c(S(=O)(=O)N(C)CCOCC(=O)N(C)[C@H]2CC[C@@H](CN3CCC[C@H](N(C)C)C3)CC2)c(C)c1 [(473)] | 1.8
COc1cc(C)c(S(=O)(=O)N(C)CCOCC(=O)N(C)[C@@H]2CCN(C3CCN(C4CCCC4)CC3)C2)c(C)c1 [(478)] | 1
COc1cc(C)c(S(=O)(=O)N(C)CCC(=O)Nc2ccc(N3CCN(c4cc[n+](C)cc4)CC3)cc2)c(C)c1 [(227)] | 4.8
COc1cc(C)c(S(=O)(=O)N(C)CCOCC(=O)N(C)C[C@H]2CC[C@H](CN3CCC3)CC2)c(C)c1 [(392)] | 8.3
COc1cc(C)c(S(=O)(=O)N(C)CCC(=O)NC2CCN(c3ccc(CN4CCCC4)cc3Cl)CC2)c(C)c1 [(188)] | 9.4
COc1cc(C)c(S(=O)(=O)N(C)CCOCC(=O)N(C)[C@H]2CC[C@@H](CCN(C)C)CC2)c(C)c1 [(620)] | 5.9
COc1cc(C)c(S(=O)(=O)N(C)CCOCC(=O)N(C)Cc2ccc(N(C)CCN(C)C)cc2)c(C)c1 [(323)] | 2.8
COc1cc(C)c(S(=O)(=O)N(C)CCC(=O)NCc2ccc(N3CCC(N4CCCC4)CC3)c(C)c2)c(C)c1 [(269)] | 7.8
COc1cc(C)c(S(=O)(=O)N(C)CCOCC(=O)N(C)[C@H]2CCN(C3CCN(C)CC3)C2)c(C)c1 [(393)] | 1.6
COc1cc(C)c(S(=O)(=O)N(C)CCOCC(=O)N(C)C2CCc3cc(OCCN4CCCC4)ccc32)c(C)c1 (stereo not drawn) [(418)] | 1.2
COc1cc(C)c(S(=O)(=O)N(C)CCOCC(=O)N(C)CC2CCN(c3ccncc3)CC2)c(C)c1 [(61)] | 3.3
COc1cc(C)c(S(=O)(=O)N(C)CCOCC(=O)N(C)[C@H]2CCN(C3CCN(C(C)C)CC3)C2)c(C)c1 [(399)] | 3
COc1cc(C)c(S(=O)(=O)N(C)CCC(=O)N[C@H]2CC[C@H](N3CCC(CCN4CCCC4)CC3)CC2)c(C)c1 [(303)] | 6.32
COc1cc(C)c(S(=O)(=O)N(C)CCOCC(=O)N(C)C[C@@H]2CCN(CCCN3CCCC3)C2)c(C)c1 [(576)] | 0.85

SMILES | Ki [nM]
COc1cc(C)c(S(=O)(=O)N(C)CCOCC(=O)N(C)Cc2ccc(NCCN(C)C)cc2)c(C)c1 [(325)] | 0.94
COc1cc(C)c(S(=O)(=O)N(C)CCOCC(=O)N(C)[C@@H]2CCN(C(=O)CCN3CCCC3)C2)c(C)c1 [(580)] | 6.2
COc1cc(C)c(S(=O)(=O)N(C)CCC(=O)Nc2ccc(N3CCN(c4ccncc4)CC3)nc2)c(C)c1 [(22)] | 7
COc1cc(C)c(S(=O)(=O)N(C)CCOCC(=O)N(C)Cc2ccc(-c3cn(C)cn3)cc2)c(C)c1 [(66)] | 4.6
COc1cc(C)c(S(=O)(=O)N(C)CCOCC(=O)N(C)[C@@H]2CCN(C(=O)CCN3CCCCC3)C2)c(C)c1 [(623)] | 3.4
COc1cc(C)c(S(=O)(=O)N(C)CCC(=O)Nc2cc(F)c(N3CCC(N(C)C)CC3)cc2C)c(C)c1 [(183)] | 6.6
COc1cc(C)c(S(=O)(=O)N(C)CCOCC(=O)N(C)C2CCC(N3CCC(N4CCCC4)CC3)CC2)c(C)c1 (stereo not drawn) [(468)] | 1
COc1cc(C)c(S(=O)(=O)N(C)CCOCC(=O)N(C)[C@H]2CC[C@@H](OCCN3CCCC3)CC2)c(C)c1 [(614)] | 2
COc1cc(C)c(S(=O)(=O)N(C)CCOCC(=O)N(C)Cc2ccc(CNC(C)(C)C)cc2)c(C)c1 [(78)] | 5.8
COc1cc(C)c(S(=O)(=O)N(C)CCOCC(=O)N(C)Cc2ccc(OCCN(C)C)c(Cl)c2)c(C)c1 [(352)] | 9.2
COc1cc(C)c(S(=O)(=O)N(C)CCC(=O)Nc2cc(Br)c(N3CCC(N(C)C)CC3)cc2C)c(C)c1 [(184)] | 1.3
COc1cc(C)c(S(=O)(=O)N(C)CCOCC(=O)N(C)Cc2ccc(N3CC[C@@H](N(C)C)C3)cc2)c(C)c1 [(385)] | 6.4
COc1cc(C)c(S(=O)(=O)N(C)CCOCC(=O)N(C)Cc2ccc(N(C)CCN(C)C)cc2C)c(C)c1 [(389)] | 3.7
COc1cc(C)c(S(=O)(=O)N(C)CCOCC(=O)N(C)[C@H]2CC[C@@H](CCN3CCC3)CC2)c(C)c1 [(592)] | 2.8
COc1cc(C)c(S(=O)(=O)N(C)CCOCC(=O)N(C)Cc2ccc3nc(NCCN(C)C)ccc3c2)c(C)c1 [(368)] | 1.52
COc1cc(C)c(S(=O)(=O)N(C)CCOCC(=O)N(C)Cc2ccc(N3CCC(N(C)C)C3)cc2)c(C)c1 (stereo not drawn) [(334)] | 8.65
COc1cc(C)c(S(=O)(=O)N(C)CCOCC(=O)N(C)Cc2ccc(CNC3CCCC3)cc2)c(C)c1 [(72)] | 2.8
COc1cc(C)c(S(=O)(=O)N(C)CCOCC(=O)N(C)Cc2ccc3c(c2)nc(N)n3C)c(C)c1 [(369)] | 3.8
COc1cc(C)c(S(=O)(=O)N(C)CCC(=O)Nc2ccc(N3CCC(CCN(C)C)CC3)c(Cl)c2)c(C)c1 [(182)] | 4.8

SMILES | Ki [nM]
COc1cc(C)c(S(=O)(=O)N(C)CCOCC(=O)N(C)Cc2ccc3[nH]c(CN(C)C)nc3c2)c(C)c1 [(404)] | 2.8
COc1cc(C)c(S(=O)(=O)N(C)CCOCC(=O)N(C)Cc2ccc(N3CCC(N(C)C)C3)cc2Cl)c(C)c1 (stereo not drawn) [(356)] | 8.8
COc1cc(C)c(S(=O)(=O)N(C)CCOCC(=O)N(C)[C@H]2CC[C@@H](CCN(C)CC3CC3)CC2)c(C)c1 [(463)] | 2
COc1cc(Cl)cc(Cl)c1S(=O)(=O)N(C)CCOCC(=O)N(C)[C@@H]1CCN(C2CCN(C)CC2)C1 [(469)] | 8
CCN(CC)CCC(=O)N1CC[C@@H](N(C)C(=O)COCCN(C)S(=O)(=O)c2c(C)cc(OC)cc2C)C1 [(624)] | 8
COc1cc(C)c(S(=O)(=O)N(C)CCOCC(=O)N(C)Cc2ccc(CN3CCCC3)cc2)c(C)c1 [(109)] | 6
COc1cc(C)c(S(=O)(=O)N(C)CCOCC(=O)N(C)Cc2ccc(N3CCCC(N(C)C)C3)cc2C)c(C)c1 (stereo not drawn) [(381)] | 8.1
COc1cc(C)c(S(=O)(=O)N(C)CCOCC(=O)N(C)Cc2ccc(N3CCC(N4CCCC4)C3)cc2)c(C)c1 (stereo not drawn) [(353)] | 6.1
COc1cc(C)c(S(=O)(=O)N(C)CCOCC(=O)N(C)Cc2ccc(-c3cn4c(n3)CCCC4)cc2)c(C)c1 [(55)] | 0.7
COc1cc(C)c(S(=O)(=O)N(C)CCOCC(=O)N(C)[C@H]2CC[C@@H](CN3CC[C@@H](N(C)C)C3)CC2)c(C)c1 [(441)] | 4.6
COc1cc(C)c(S(=O)(=O)N(C)CCOCC(=O)N(C)Cc2ccc(C3CCN(C)CC3)cc2)c(C)c1 [(326)] | 6.5
COc1cc(C)c(S(=O)(=O)N(C)CCOCC(=O)N(C)CC2CCC(NCCN(C)C)CC2)c(C)c1 (stereo not drawn) [(372)] | 2.39
CCC(CC)NCc1ccc(CN(C)C(=O)COCCN(C)S(=O)(=O)c2c(C)cc(OC)cc2C)cc1 [(77)] | 8.7
COc1cc(C)c(S(=O)(=O)N(C)CCOCC(=O)N(C)C[C@]2(C)CC[C@H](CN3CCC3)C2(C)C)c(C)c1 [(582)] | 9.3
COc1cc(C)c(S(=O)(=O)N(C)CCOCC(=O)N(C)CC2CCC(N3CCN(C)CC3)CC2)c(C)c1 (stereo not drawn) [(420)] | 9.1
CCN1CCC(N2CC[C@H](N(C)C(=O)COCCN(C)S(=O)(=O)c3c(C)cc(OC)cc3C)C2)CC1 [(401)] | 2.7
COc1cc(C)c(S(=O)(=O)N(C)CCOCC(=O)N(C)C[C@H]2CC[C@H](NCCN3CCCC3)CC2)c(C)c1 [(591)] | 1.9
COc1cc(C)c(S(=O)(=O)N(C)CCOCC(=O)N(C)[C@H]2CC[C@@H](CCN3CCOCC3)CC2)c(C)c1 [(619)] | 1.2
COc1cc(C)c(S(=O)(=O)N(C)CCOCC(=O)N(C)CC2CCC(N3CCC(N(C)C)CC3)CC2)c(C)c1 (stereo not drawn) [(586)] | 5.1
